Literature values, collected in patent publication US20230210865A1, “MIDAZOLAM PREMIX FORMULATIONS AND USES THEREOF” (Baxter International, Inc., priority 2021, published 2023).
Where a name gives a salt, the structure may show the parent alone.

Cc1ncc2n1-c1ccc(Cl)cc1C(c1ccccc1F)=NC2 [Midazolam HCl, 8-chloro-6-(2-fluorophenyl)-1-methyl-4H-imidazo[1,5-a][1,4]benzodiazepine hydrochloride]
Onset time of sedative effects (after intramuscular administration in adults): about fifteen | Potency relative to diazepam (sedative agent, administered by injection): about twice
